In patent publication US6596726B1, “Tricyclic compounds capable of inhibiting tyrosine kinases of the epidermal growth factor receptor family” (Warner Lambert Company, priority 1994, dated 2003):
pIC50: −log10 of the molar value. Where a name gives a salt, the structure may show the parent alone. Read-outs that look alike come from different tables or passages of the source.

Columns and labels:
[1] = molecular target: T1, Human EGF receptor tyrosine kinase (Homo sapiens, UniProt P00533); assay: EGF receptor tyrosine kinase inhibition (phosphorylation of PLC-gamma 1 derived peptide); format: biochemical
T1 construct: Human EGF receptor tyrosine kinase was isolated from A431 human epidermoid carcinoma cells which overexpress EGF receptor; endogenous in cells; host or cells: A431 human epidermoid carcinoma cells; purified on wheat germ agglutinin sepharose
Experimental: Purification of Epidermal Growth Factor Receptor Tyrosine Kinase—Human EGF receptor tyrosine kinase was isolated from A431 human epidermoid carcinoma cells which overexpress EGF receptor by the following methods. Cells were grown in roller bottles in 50% Delbuco's Modified Eagle and 50% HAM F-12 nutrient media (Gibco) containing 10% fetal calf serum. Approximately 10^9 cells were lysed in two volumes of buffer containing 20 mM 2-(4N-[2-hydroxyethyl]piperazin-1-yl)ethanesulfonic acid (hepes), pH 7.4, 5 mM ethylene glycol bis(2-aminoethyl ether) N,N,N′,N′-tetraacetic acid, 1% Triton X-100, 10% glycerol, 0.1 mM sodium orthovanadate, 5 mM sodium fluoride, 4 mM pyrophosphate, 4 mM benzamide, 1 mM dithiothreitol, 80 μg/mL aprotinin, 40 μg/mL leupeptin and 1 mM phenylmethylsulfonyl fluoride. After centrifugation at 25,000×g for 10 minutes, the supernatant was equilibrated for 2 h at 4° C. with 10 mL of wheat germ agglutinin sepharose that was previously equilibrated with 50 mM Hepes, 10% glycerol, 0.1% Triton X-100 and 150 mM NaCl, pH 7.5, (equilibration buffer). Contaminating proteins were washed from the resin with 1 M NaCl in equilibration buffer, and the enzyme was eluted with 0.5 M N-acetyl-1-D-glucosamine in equilibration buffer, followed by 1 mM urea. The enzyme was eluted with 0.1 mg/ml EGF.
The reaction was terminated by the addition of 2 mL of 75 mM phosphoric acid and passed through a 2.5 cm phosphocellulose filter disc to bind the peptide. The filter was washed five times with 75 mM phosphoric acid and placed in a vial along with 5 mL of scintillation fluid (Ready gel Beckman).

[2] = test system: erbB-2, 3, 4 autophosphorylation in SK-BR-3 breast tumor cells; assay: Inhibition of conditioned media-induced autophosphorylation in SK-BR-3 breast tumor cells; format: cell-based, human; details: SK-BR-3 cells, read-out: SKBR-3 IC50
Experimental: (§1) Cells were grown to 100% confluency in 100 mm Petrie dishes (Corning). After the cells were treated for 5 minutes with either EGF (epidermal growth factor), PDGF, or bFGF (basic fibroblast growth factor) (20 ng/ml) or 1 ml of conditioned media from MDA-MB-231 cells, the media was removed and the monolayer scraped into 1 ml of ice cold lysis buffer (50 mM Hepes, pH 7.5, 150 mM NaCl, 10% glycerol, 1% triton X-100, 1 mM EDTA, 1 mM EGTA, 10 mM sodium pyrophosphate, 30 mM p-nitrophenyl phosphate, 1 mM orthovanadate, 50 mM sodium fluoride, 1 mM phenylmethylsulfonylfluoride, 10 μg/ml of aprotinin, and 10 μg/ml of leupeptin). The lysate was transferred to a microfuge tube (small centrifuge that holds 1-2 ml plastic centrifuge tubes), allowed to sit on ice 15 minutes and centrifuged 5 minutes at 10,000×g. The supernatant was transferred to a clean microfuge tube and 5 μg of antibody was added to designated samples. The tubes were rotated for 2 hours at 4° C. after which 25 μl of protein A sepharose was added and then rotation continued for at least 2 more hours. The protein A separose was washed 5 times with 50 mM Hepes, pH 7.5, 150 mM NaCl, 10% glycerol and 0.02% sodium azide. The precipitates were resuspended with 30 μl of Laemlli buffer (Laemmli, NATURE, Vol. 727, pp. 680-685, 1970), heated to 100° C. for 5 minutes and centrifuged to obtain the supernatant. Whole cell extracts were made by scraping cells grown in the wells of 6 well plates into 0.2 ml of boiling Laemmli buffer. The extract were transferred to a microfuge tube and heated to 100° C. for 5 minutes. The entire supernatant from the immunoprecipitation or 35 μl of the whole cell extract was loaded onto a polyacrylamide gel (4-20%) and electrophoresis carried out by the method of Laemlli (Laemmli, 1970). Proteins in the gel were electrophoretically transferred to nitrocellulose and the membrane was washed once in 10 mM Tris buffer, pH 7.2, 150 mM NaCl, 0.01% Azide (TNA) and blocked overnight in TNA containing 5% bovine serum albumin and 1% ovalbumin (blocking buffer). The membrane was blotted for 2 hours with the primary antibody (1 μg/ml in blocking buffer) and then washed 2 times sequentially in TNA, TNA containing 0.05% Tween-20 and 0.05% Nonidet P-40 (commercially available detergent) and TNA. The membranes were then incubated for 2 hours in blocking buffer containing 0.1 μCi/ml of [^125I] protein A and then washed again as above. After the blots were dry they were loaded into a film cassette and exposed to X-AR X-ray film for 1-7 days. Protein A is a bacterial protein that specifically bonds certain IgG subtypes and is useful in binding to and isolating antibody-antigen complexes.
(§2) Inhibition of EGF-Induced Autophosphorylation in A431 Epidermoid Carcinoma Cells and Conditioned Media-Induced Autophosphorylation in SK-BR-3 Breast Tumor Cells by Compounds of the Current Invention

[3] = molecular target: T2, EGF receptor autophosphorylation in A431 human epidermoid carcinoma cells (Homo sapiens, UniProt P00533); assay: Inhibition of EGF-induced autophosphorylation in A431 epidermoid carcinoma cells; format: cell-based
T2 construct: endogenous in cells; host or cells: A431 human epidermoid carcinoma cells (ATCC)
Experimental: as §1, with “The precipitates were resuspended with 30 μl of Laemlli buffer (Laemmli, NATURE, Vol. 727, pp. 680-685, 1970), heated to 100° C. for 5 minutes and centrifuged to obtain the supernatant. Whole cell extracts were made by scraping cells grown in the wells of 6 well plates into 0.2 ml of boiling Laemmli buffer.” left out, “The entire supernatant from the immunoprecipitation or 35 μl of the whole cell extract was loaded onto a polyacrylamide gel (4-20%) and electrophoresis carried out by the method of Laemlli (Laemmli, 1970).” left out, “TNA.” for “TNA. The membranes were then incubated for 2 hours in blocking buffer containing 0.1 μCi/ml of [^125I] protein A and then washed again as above. After the blots were dry they were loaded into a film cassette and exposed to X-AR X-ray film for 1-7 days. Protein A is a bacterial protein that specifically bonds certain IgG subtypes and is useful in binding to and isolating antibody-antigen complexes.”
as §2
The numbers to the left of gels indicate the positions of molecular weight standards in kiloDaltons.

[4] = test system: B104-1-1 NIH-3T3 mouse fibroblasts transfected by the neu oncogene; assay: Growth inhibition assay (antiproliferative), B104-1-1; format: cell-based; details: 72 h, B104-1-1 cells, 3 days
Text: Antiproliferative Properties of Tyrosine Kinase Inhibitors IC50 (nM)
B104-1-1—NIH-3T3 mouse fibroblasts transfected by the neu oncogene: Stern et al., Science, 234, pp. 321-324 (1987);

[5] = EGF Receptor Tyrosine Kinase Inhibition, Table 1, values in nM, read-out: IC50 in EGFR
[6] = enzyme value repeated in the autophosphorylation table, read-out: EGFR IC50

For `COc1cccc2sc3c(Nc4cccc(Br)c4)ncnc3c12.Cl` [Example 18, 4-(3-Bromoanilino)-9-methoxybenzo[b]thieno[3,2-d]pyrimidine hydrochloride.], which “EGFR inhibition at fixed concentration” value ([1]; @ 10 nM) is on record?
The value was 36% @ 10.

How did the pIC50 [2] turn out when `Cn1cnc2cc3c(Nc4cccc(Br)c4)ncnc3cc21` [Example 8, 4-(3-Bromoanilino)-8,N-methylimidazolo[4,5-g]quinazoline] was run?
Its pIC50 is 8.00.

`Brc1cccc(Nc2ncnc3c2sc2ncccc23)c1` [Example 21, 4-(3-bromoanilino)pyrido[3′, 2′; 4,5]thieno[3,2-d]pyrimidine] was tested. Which pIC50 [1] did it give?
The pIC50 was 6.14.

How did the pIC50 [1] turn out when `Brc1cccc(Nc2ncnc3c2oc2ccccc23)c1` [Example 34, 4-(3-Bromoanilino)benzofurano[3,2-d]pyrimidine] was run?
The pIC50 was 6.13.

With `Brc1cccc(Nc2ncnc3c2sc2ncsc23)c1` [Example 19, 4-(3-Bromoanilino)thiazolo[4′,5′; 4,5]thieno[3,2-d]pyrimidine] as the molecule, how does the pIC50 [2] read?
Its pIC50 is about 5.82.

How did the pIC50 [1] turn out when `Brc1cccc(Nc2ncnc3cc4[nH]ccc4cc23)c1` [Example 3, 4-(3-Bromoanilino)pyrrolo[3,2-g]quinazoline] was run?
Its pIC50 is 9.12.

How did the pIC50 ([1]; read-out: EGFR IC50) turn out when `Brc1cccc(Nc2ncnc3cc4nccnc4cc23)c1` [Example 10, 4-(3-Bromoanilino)pyrazino[2,3-g]quinazoline] was run?
The pIC50 was 8.77.

And the pIC50 ([1]; read-out: IC50 in EGFR)?
Its pIC50 is 8.77.

What about the pIC50 [3] of the same molecule?
The pIC50 was 7.51.

What about the pIC50 [2] of the same molecule?
The pIC50 was about 6.15.

With `C[C@@H](Nc1ncnc2c1sc1ccccc12)c1ccccc1` [Example 14, 4-([R]-1-Phenylethylamino)benzothieno[3,2-d]pyrimidine] as the molecule, how does the IC50 [1, 5] read?
The IC50 was 538 nM.

How did the IC50 [1, 5] turn out when `C[C@@H](Nc1ncnc2cc3ccccc3cc12)c1ccccc1` [Example 2, 4-([R]-1-Phenylethylamino)benzo[g]quinazoline hydrochloride] was run?
The IC50 was 21 nM.

How did the pIC50 [1] turn out when `COc1ccc2[nH]c3ncnc(Nc4cccc(Br)c4)c3c2c1` [Example 31, 4-(3-Bromoanilino)6-methoxyindolo[2,3-d]pyrimidine] was run?
Its pIC50 is 6.66.

For `c1ccc(Nc2ncnc3[nH]c4ccccc4c23)cc1` [Example 27, 4-Anilinoindolo[2,3-d]pyrimidine], which IC50 [1, 5] is on record?
Its IC50 is 264 nM.

`Brc1cccc(Nc2ncnc3[nH]c4ccccc4c23)c1` [Example 28, 4-(3-Bromoanilino)indolo[2,3-d]pyrimidine hydrochloride] was tested. Which IC50 [1, 5] did it give?
The IC50 was 31 nM.

And the pIC50 [1, 6]?
Its pIC50 is 7.51.

What about the pIC50 [3] of the same molecule?
Its pIC50 is 6.20.

And the pIC50 [2]?
Its pIC50 is 8.00.

`c1ccc(CNc2ncnc3c2[nH]c2ccccc23)cc1` [Example 23, 4-Benzylaminoindolo[3,2-d]pyrimidine] was tested. Which IC50 [1, 5] did it give?
Its IC50 is 460 nM.

`Brc1cccc(Nc2ncnc3cc4ncoc4cc23)c1` [Example 5] was tested. Which IC50 ([1]; EGF Receptor Tyrosine Kinase Inhibition, Table 1, values in pM, read-out: IC50 in EGFR) did it give?
Its IC50 is 0.075 nM.

Which IC50 [1, 5] does the source give for `Cn1c2ccccc2c2c(Nc3cccc(Br)c3)ncnc21` [Example 29, 4-(3-Bromoanilino)-9,N-methylindolo[2,3-d]pyrimidine.] here?
Its IC50 is 732 nM.

What about the pIC50 [3] of the same molecule?
Its pIC50 is 6.96.

What about the pIC50 [2] of the same molecule?
Its pIC50 is 5.96.

Which results are given for `Brc1cccc(Nc2ncnc3c2sc2ccccc23)c1` [Example 15, 4-(3-Bromoanilino)benzothieno[3,2-d]pyrimidine]?
IC50 [1, 5]: 1.8 nM; pIC50 [1, 6]: 8.74; pIC50 [3]: 6.77

Which IC50 [1, 5] does the source give for `O=[N+]([O-])c1ccc2sc3c(Nc4cccc(Br)c4)ncnc3c2c1` [Example 16, 4-(3-Bromoanilino)-8-nitrobenzo[b]thieno[3,2-d]pyrimidine] here?
The IC50 was 12.3 nM.

“4-(3-Bromoanilino)triazolo[4,5-g]quinazoline hydrochloride [Example 7]” was tested. Which IC50 [1, 5] did it give?
Its IC50 is 4.1 nM.

With “4-(3-Bromoanilino)imidazolo[4,5-h]quinazoline hydrochloride [Example 11]” as the molecule, how does the pIC50 ([1]; read-out: IC50 in EGFR) read?
Its pIC50 is 6.57.

What does the source list for `Nc1ccc2sc3c(Nc4cccc(Br)c4)ncnc3c2c1` [Example 17, 8-Amino-4-(3-bromoanilino)benzo[b]thieno[3,2-d]pyrimidine]?
pIC50 [2]: 7.64; pIC50 [4]: 5.54

What does the source list for `Brc1cccc(Nc2ncnc3cc4ccccc4cc23)c1` [Example 1, 4-(3-bromoanilino)benzo[q]quinazoline hydrochloride]?
pIC50 [1]: > 10.00; IC50 ([1]; read-out: EGFR IC50 nM): < 0.1 nM; pIC50 [3]: 7.77

How did the pIC50 [1] turn out when `Cn1cnc2cc3ncnc(Nc4cccc(Br)c4)c3cc21` [Example 9, 4-(3-Bromoanilino)-6,N-methylimidazolo[4,5-g]quinazoline] was run?
Its pIC50 is about 11.00.

With `Nc1nc(Nc2cccc(Br)c2)c2c(n1)[nH]c1ccccc12` [Example 32, 2-Amino-4-(3-bromoanilino)pyrimido[2,3-d]indole] as the molecule, how does the IC50 [1, 5] read?
The IC50 was 160 nM.

`Brc1cccc(Nc2ncnc3c2[nH]c2ccccc23)c1` [Example 25, 4-(3-Bromoanilino)indolo[3,2-d]pyrimidine hydrochloride] was tested. Which pIC50 [2] did it give?
The pIC50 was 6.00.

For `Clc1cccc(Nc2ncnc3c2sc2ncccc23)c1` [Example 20, 4-(3-Chloroanilino)pyrido[3′, 2′:4,5]thieno[3,2-d]pyrimidine], which IC50 ([1]; EGF Receptor Tyrosine Kinase Inhibition, Table 1, values printed in μM, read-out: IC50 in EGFR) is on record?
Its IC50 is 1300 nM.
